Measured values as given in US20100129289A1, “COMPOSITIONS AND METHODS FOR THE DETECTION OF VULNERABLE PLAQUE” (THE OHIO STATE UNIVERSITY RESEARCH FOUNDATION, priority 2006, published 2010).
“Also recorded” adds a separate entry of the source. Ends that are not written are not given here. * marks the point of attachment. Biotin = O=C1N[C@H]2[C@H](CS[C@H]2CCCCC(=O)*)N1

Legend:
[1] = tested on: WHHL rabbit aortic tissue (intima); assay: Resected WHHL rabbit aortic tissue peptide binding assay; details: for positive binding / staining on WHHL tissue samples: five to seven tissue samples per peptide; for staining on WHHL tissue, original versus randomized sequence: one experiment on a WHHL rabbit, FIGS. 14 and 15; for staining on WHHL aortic tissue: overall statement across experiments; for staining of corresponding WHHL tissue samples: sections FIG. 10(c) (peptide 4) and FIG. 11(a) (peptide 3); for staining of individual WHHL tissue sections: sections FIG. 10(d) (peptide 4) and FIG. 11(b) (peptide 3)
Protocol: (§1) Experiments were performed to determine if the synthesized peptides could bind to the intima of the WHHL (diseased) rabbits but not to the NZW (control) rabbits. The following procedure is shown schematically in FIG. 2. The animals were anesthetized, injected with 0.7-1.0 mL heparin, and perfused with 200-300 mL Hanks buffered salt solution containing 1% BSA. A segment of the aorta comprising the aortic arch to the bifurcation of the aorta in the lower abdomen was removed and placed in a buffer solution of Hanks w/1% BSA and 1% protease inhibitor cocktail (Sigma, P8340). The aorta segments were opened longitudinally and sliced into individual pieces approximately 1-2 mm^2 each. These pieces were then placed into tubes containing individual peptides at a concentration of 5 μg/mL in the same buffer solution described above.
(§2) The tissue sections were incubated with individual peptides for 45-60 minutes at room temperature. Samples were washed 3× with PBS followed by incubation with SA-HRP or anti-FLAG-HRP in the same buffer for 45-60 minutes at room temperature. After another 3× washing, the samples were incubated with DAB for 30 minutes in the same buffer. After a final round of washing, tissue samples were imaged with a dissecting microscope and analyzed for the presence of brown staining on the endothelial surface. […] Some tissue sections received no peptide incubation; rather they were exposed only to SA-HRP or anti-FLAG-HRP as a control.

[2] = tested on: lipid-loaded HAECs; assay: Lipid-loaded HAEC peptide binding assay; assay type: cell-based, human; details: peptide 1, 5 or 100 μg/mL; SA-HRP or anti-FLAG-HRP with DAB
Protocol: Human aortic endothelial cells (HAECs) were loaded with acetylated low-density lipoprotein as described herein. Peptide binding assays were performed 24 hours after the third lipid-loading of the cells. Control cells grown in the standard media without added lipid were cultured for the same amount of time as the lipid-loaded HAECs.
The general procedure for the peptide binding assays was conducted as follows (see FIG. 1). Variations on this method will be discussed as well. Both the lipid- and non-lipid-loaded cells were imaged prior to the assays to verify morphological differences between the two conditions of the cells. The media was aspirated and cells were washed 3× with cold wash buffer (PBS w/Ca^2+, […] with 2% FBS), followed by a 5 minute incubation on ice to minimize internalization of peptides. Cold blocking buffer (PBS w/1% BSA) was added to the cells for 15 minutes to prevent nonspecific binding. Peptides were then added to the cells in cold blocking buffer at 1, 5, or 100 μg/mL and incubated for 1 hour on ice. Following incubation, cells were washed 3×, and either streptavidin horseradish peroxidase (SA-HRP) or anti-FLAG horseradish peroxidase (anti-FLAG-HRP) was added to the cells in cold blocking buffer at the recommended concentrations provided by the manufacturers. […]

[3] = tested on: NZW rabbit aortic tissue (intima); assay: Resected NZW rabbit aortic tissue peptide binding assay; details: for staining / binding on NZW tissue: peptide 9 at 1× concentration, FIG. 12
Protocol: as §1, §2

[4] = tested on: frozen WHHL aorta tissue sections; assay: Direct staining on frozen WHHL rabbit tissue sections; assay type: binding; details: for staining of frozen WHHL aorta tissue sections: peptide 1 μg/mL, 4 μm sections, FIG. 22
Protocol: Some of the resected WHHL and NZW aortic arch tissues were frozen and sectioned into 4 μm slices. Binding assays were performed on these frozen sections in a similar manner to that described herein. Sections were thawed and incubated with blocking buffer (Hanks w/1% BSA) for 30 minutes. Individual peptides were added to the slides in blocking buffer at a concentration of 1 μg/mL. After 45 minutes of incubation, the slides were washed and either SA-HRP or anti-FLAG-HRP, depending on the modification of the peptides, was added at the recommended concentration and allowed to incubate for 1 hour. The slides were washed again, and the DAB substrate was added and incubated for 30 minutes while looking for brown color development. After washing away the DAB, the tissue samples were fixed with 10% buffered formalin for 10 minutes followed by counterstaining with hemotoxylin. The slides were then mounted with permount and glass coverslips for imaging. The standard SA-HRP and anti-FLAG-HRP controls were performed for these experiments as well.

[5] = tested on: aorta of ApoE knockout mice; assay: ApoE knockout mice in vivo peptide binding assay; set-up: species or system mouse; details: 1 hour circulation, SA-HRP or anti-FLAG-HRP with DAB
Protocol: In the peptide binding assays, individual peptides are injected into an anesthetized mouse and allowed to circulate in vivo for 1 hour. Note that this is different from the WHHL/NZW binding assays where the aorta is first resected and then incubated with peptide. The animal is then fixed via cardiac perfusion with 4% formaldehyde, and the aorta is removed to test for binding of the peptide. The detection assay is the same assay described herein: either SA-HRP or anti-FLAG-HRP is added to the solution containing the resected tissue, followed by the addition of the DAB substrate, after which the tissue samples are sectioned and imaged.

[6] = tested on: WHHL rabbit aortic tissue (intima); assay: Resected WHHL rabbit aortic tissue peptide binding assay
[7] = tested on: atherosclerotic lesion endothelium of ApoE knockout mice; details: mouse; cited from earlier work
[8] = tested on: human atherosclerotic lesions; details: cited from earlier work
[9] = 10× concentration (˜100 μg/mL) versus 1×, FIG. 13

**Q.** Which “positive binding / staining on WHHL tissue samples” value (shortened to “positive binding / staining”) ([1]; Exp217 (FIG. 19)) does the source give for KSLSRHDHIHHH [Peptide 16] here?
**A.** The value was “stained”.

**Q.** With Biotin-RNPGYTYHIALG [Peptide 4R] as the substance, how does the “staining on WHHL tissue, original versus randomized sequence” value [1] read?
**A.** Its value is “much less staining compared to the original sequences”.

**Q.** With CNKNSIPHC [Peptide 20] as the substance, how does the “positive binding / staining” value ([1]; Exp201 (FIG. 18)) read?
**A.** The value was “showed staining on one tissue sample”.

**Q.** For CVMPGLKNC [Peptide 10], which “positive binding / staining” value ([1]; Exp201 (FIG. 18)) is on record?
**A.** The value was “showed staining on one tissue sample”.

**Q.** With CDSIKWPNC [Peptide 23] as the substance, how does the “binding to lipid-loaded HAECs (brown staining)” value [2] read?
**A.** Its value is “negative result for binding”.

**Q.** Which “positive binding / staining” value ([1]; Exp223 (FIG. 21)) does the source give for CHPASSPQC [Peptide 34] here?
**A.** Its value is “some staining”.

**Q.** For SSSKMQAAHQLP [Peptide 24], which “positive binding / staining” value ([1]; Exp201 (FIG. 18)) is on record?
**A.** Its value is “showed staining on one tissue sample”.

**Q.** And the “positive binding / staining” value ([1]; Exp219 (FIG. 20))?
**A.** The value was “some staining”.

**Q.** Which “positive binding / staining” value ([1]; Exp223 (FIG. 21)) does the source give for NLTSLTQGSAML [Peptide 39] here?
**A.** Its value is “some staining”.

**Q.** Which “positive binding / staining” value ([1]; Exp223 (FIG. 21)) does the source give for TDTTMGQVHRHP [Peptide 37] here?
**A.** The value was “some staining”.

**Q.** For TPLEVHPESLPW [Peptide 3], which “staining / binding on NZW tissue” value [3] is on record?
**A.** The value was “no binding”.

**Q.** What about the “staining on WHHL aortic tissue” value [1] of the same substance?
**A.** The value was “above-average reproducible staining”.

**Q.** And the “staining of corresponding WHHL tissue samples” value [1]?
**A.** The value was “very little, if any, brown staining”.

**Q.** What about the “staining of individual WHHL tissue sections” value [1] of the same substance?
**A.** Its value is “best staining”.

**Q.** For TAPHHSTPANVP [Peptide 17], which “binding to lipid-loaded HAECs (brown staining)” value [2] is on record?
**A.** The value was “negative result for binding”.

**Q.** For CKQSFEKSC [Peptide 1], which “positive binding / staining” value ([1]; Exp201 (FIG. 18)) is on record?
**A.** The value was “showed staining on one tissue sample”.

**Q.** For NADNQMTWRHVL [Peptide 38], which “positive binding / staining” value ([1]; Exp223 (FIG. 21)) is on record?
**A.** The value was “some staining”.

**Q.** For “SIGYPLP [Peptide 13, reference compound]”, which “positive binding / staining” value ([1]; Exp217 (FIG. 19)) is on record?
**A.** Its value is “stained”.

**Q.** Which “staining of frozen WHHL aorta tissue sections” value [4] does the source give for “ILTHEHTLPKQ-FLAG (ILTHEHTLPKQ-{FLAG}) [Peptide 9R]” here?
**A.** The value was “no staining; also recorded: no binding”.

**Q.** Which “positive binding / staining” value ([1]; Exp217 (FIG. 19)) does the source give for CKQSPPSMC [Peptide 14] here?
**A.** The value was “stained”.

**Q.** With SSLPAPPWPLRG [Peptide 6] as the substance, how does the “positive binding / staining” value ([1]; Exp201 (FIG. 18)) read?
**A.** Its value is “showed staining on one tissue sample”.

**Q.** What about the “positive binding / staining” value ([1]; Exp217 (FIG. 19)) of the same substance?
**A.** The value was “slight staining”.

**Q.** With TSPQTKDC [Peptide 7] as the substance, how does the “positive binding / staining” value ([1]; Exp201 (FIG. 18)) read?
**A.** Its value is “showed staining on one tissue sample”.

**Q.** And the “positive binding / staining” value ([1]; Exp217 (FIG. 19))?
**A.** Its value is “slight staining”.

**Q.** And the “binding to aorta after in vivo circulation of peptide” value [5]?
**A.** The value was “did not yield positive results”.

**Q.** For TQTPIKHHLLKE [Peptide 9], which “staining on NZW tissue at 10-fold increased concentration” value [3, 9] is on record?
**A.** Its value is “remains the same as the staining seen with the 1× concentration”.

**Q.** What about the “staining / binding on NZW tissue” value [3] of the same substance?
**A.** The value was “some slight staining; also recorded: light, distinct staining pattern; also recorded: slight background staining”.

**Q.** And the “binding to regions of plaque, dependence on dose” value ([1]; WHHL aortic tissue)?
**A.** Its value is “dose-dependent manner”.

**Q.** What about the “location of staining in sectioned WHHL aorta” value ([1]; histological sections, Hoechst stain, 400×, FIG. 16) of the same substance?
**A.** Its value is “localized to the intimal layer, with no infiltration into the plaque region; also recorded: localized to the intimal layer of the aorta”.

**Q.** What about the “staining over plaque versus non-plaque regions of WHHL aorta” value ([1]; histological sections, FIG. 17) of the same substance?
**A.** The value was “present on intima covering regions of plaque but not over non-plaque regions; also recorded: seen over plaque-rich regions”.

**Q.** And the “staining on WHHL tissue, original versus randomized sequence” value [1]?
**A.** The value was “stronger than the staining seen from peptide 9R”.

**Q.** What about the “staining on WHHL aortic tissue” value [1] of the same substance?
**A.** The value was “consistently shows staining”.

**Q.** And the “binding to frozen tissue samples” value ([4]; frozen WHHL and NZW tissue)?
**A.** Its value is “showed binding”.

**Q.** What about the “staining of frozen WHHL aorta tissue sections” value [4] of the same substance?
**A.** Its value is “strong brown staining on the surface; also recorded: stains the intimal surface”.

**Q.** What about the “binding to aorta after in vivo circulation of peptide” value [5] of the same substance?
**A.** The value was “did not yield positive results”.

**Q.** What about the “staining on WHHL aortic tissue relative to anti-FLAG-HRP control sections” value ([6]; 1× concentration (˜10 μg/mL), FIGS. 8 and 9, two WHHL rabbits) of the same substance?
**A.** The value was “more total staining, and the staining is very distinct”.

**Q.** What about the “staining on WHHL tissue at 10-fold increased concentration” value [6, 9] of the same substance?
**A.** The value was “increases dramatically”.

**Q.** With APHYLKTAPPPN [Peptide 28] as the substance, how does the “positive binding / staining” value ([1]; Exp219 (FIG. 20)) read?
**A.** Its value is “some staining”.

**Q.** For YITPYAHLRGGN [Peptide 4], which “staining / binding on NZW tissue” value [3] is on record?
**A.** The value was “no binding”.

**Q.** What about the “staining on WHHL aortic tissue” value [1] of the same substance?
**A.** Its value is “above-average reproducible staining”.

**Q.** What about the “staining of corresponding WHHL tissue samples” value [1] of the same substance?
**A.** The value was “very little, if any, brown staining”.

**Q.** What about the “staining of individual WHHL tissue sections” value [1] of the same substance?
**A.** Its value is “good staining”.

**Q.** With CKSDANSHC [Peptide 2] as the substance, how does the “positive binding / staining” value ([1]; Exp217 (FIG. 19)) read?
**A.** The value was “stained”.

**Q.** For Biotin-PPEEWSPVTHLL [Peptide 3R], which “staining on WHHL tissue, original versus randomized sequence” value [1] is on record?
**A.** Its value is “much less staining compared to the original sequences”.

**Q.** Which “binding to atherosclerotic lesion endothelium of ApoE knockout mice in vivo” value [7] does the source give for “CNHRYMQMC [Peptide 11, reference compound]” here?
**A.** Its value is “shown to bind”.

**Q.** And the “positive binding / staining” value ([1]; Exp201 (FIG. 18))?
**A.** The value was “showed staining on one tissue sample”.

**Q.** For “CAPGPSKSC (cysteine pairing not given here; also: N-terminal biotin or C-terminal FLAG, which one not given here) [Peptide 12]”, which “binding to human atherosclerotic lesions ex vivo” value [8] is on record?
**A.** Its value is “bound”.

**Q.** And the “binding to atherosclerotic lesion endothelium of ApoE knockout mice in vivo” value [7]?
**A.** The value was “bound”.

**Q.** And the “positive binding / staining” value ([1]; Exp217 (FIG. 19))?
**A.** Its value is “stained”.
